Holding throughout (assay type): in vivo
Experiment [1] concerns Echinochloa oryzicola. The experiment can be described thus: Hydroponic test of Echinochloa oryzicola. Particulars: ten days, visual index 0 (no effect) to 100 (complete kill). As to the method: Test Example 3: Hydroponic Test of Echinochloa oryzicola
Two (2) mL of distilled water was poured into a plastic tube (2.5 cm in inside diameter×10 cm in height). To the distilled water was added a solution in which the present compound or the compound A was dissolved in dimethyl sulfoxide to prepare the treatment solutions so that, the treatment concentration thereof would be values indicated in table 3. Next, four grains of sprouted Echinochloa oryzicola seeds were put in each treatment solution. The tubes were covered with parafilm, and the seeds were grown under the condition that a cultivation at 25° C. under lightning for 16 hours and a successive cultivation at 25° C. under dark for 8 hours were repeated. Ten days after the addition of the Echinochloa oryzicola seeds, the herbicidal effect on Echinochloa oryzicola was visually observed by classifying the effect into 0 to 100 indices (0 (no effect) to 100 (complete kill)).

Experiment [2] deals with Echinochloa oryzicola. The experiment is described as follows: Herbicidal effect, pot test in greenhouse (paddy water treatment). Particulars: twelve days after treatment, visual index 0 (no effect) to 100 (complete kill). The text has this: (§1) Herbicidal effect against Echinochloa oryzicola and Lindernia procumbens (Pot test in greenhouse) Soil was put in a plastic pot (φ 5 cm×5.5 cm), and soil was puddled, and the plastic pot was allowed to stand for 2 days, Lindernia procumbens seeds were mixed with soil, and sown to the surface of puddled soil in the pot. On the same day, the sprouted seeds of Echinochloa oryzicola were sown into about 0.5 cm depth from the soil surface of the pot, and the submerged depth was adjusted to about 2 cm. Treatment solutions containing the present, compound, the compound A, or the compound B were prepared by dissolving the present compound, the compound A, or the compound B in acetone, followed by diluting the resulting solutions with distilled water. On the same day as the sowing of Echinochloa oryzicola and Lindernia procumbens, the treatment solution containing the present compound, the compound A, or the compound B was poured into paddy water in the pot so that the application rates of the chemicals would be values indicated in Table 2. Twelve days after the treatment, the herbicidal effect on weeds was visually observed by classifying the effect into 0 to 100 indices (0 (no effect) to 100 (complete kill)).

The test system of a further experiment is Lindernia procumbens. The experiment is described as above. Conditions: twelve days after treatment, visual index 0 (no effect) to 100 (complete kill).
Text: as §1

The test system of a further experiment is Arabidopsis thaliana. The experiment can be described thus: Inhibitory activity on emergence of Arabidopsis thaliana. Particulars: ten days after sowing, visual index 0: no effect to 100: no emergence. As to the method: Test Example 4: Inhibitory Activity on Emergence of Arabiclopsis thaliana Each well of 24 well microtiter plates was matted with a filter paper, and to the filter paper was added 150 μL of distilled water. To the distilled water was added a solution in which the present compound, the compound A, or the compound B was dissolved in dimethyl sulfoxide so that the concentration of each of the chemicals would be values indicated in Table 4. Next, seeds of Arabidopsis thaliana were sown into each well and grown under the condition that a cultivation at 25° C. under lighting for 16 hours and a successive cultivation at 25° C. under dark for 8 hours were repeated. Ten days after sowing, the inhibitory activity on emergence of Arabidopsis thaliana was visually evaluated by classifying the activity into 0 to 100 indices (0: no effect to 100: no emergence).

For a further experiment, the system named is Amaranthus retroflexus. The experiment can be described thus: Post-emergence treatment test in a farmland (pot, foliar spray). Particulars: application rate 4 kg/ha; two-leaf stage, sprayed; nine days after spraying; visual, 11 stages 0 (no effect) to 10 (complete kill). As to the method:
Test Example 1: Post-emergence treatment test in a farmland
Nursery soil was put in a plastic pot measuring 8 cm in diameter and 6.5 cm in height, and in the pot, seeds of Amaranthus retroflexus were sown, and then covered with soil of about 0.5 cm thickness, and the plants were grown in a greenhouse. When the Amaranthus retroflexus plants were grown to two-leaf stage, a diluted solution containing any one of the present compound, the compound A, or the compound B was uniformly sprayed on the whole Amaranthus retroflexus plants so that the application rates of the chemicals would be values indicated in Table 1.
Here the diluted solution was prepared by dissolving the present compound, the compound A, or the compound B in dimethylformamide solution containing 2% of Tween 20 (polyoxyethylene sorbitan fatty acid ester) (manufactured by MP Biomedicals Inc.) and then diluting the solution with deionized water.
The Amaranthus retroflexus plants that were sprayed with the diluted solution containing the present compound, the compound A, or the compound B were grown in a greenhouse. Nine clays after spraying, the efficacy for controlling Amaranthus retroflexus plants was observed, thereby examining a herbicidal effect. Here the herbicidal effect was visually observed and evaluated by classifying the effect into 11 stages from 0 (no effect) to 10 (complete kill).

Where [3] appears, read: treatment concentration 125 ppm.
Setting [4] is: treatment concentration 250 ppm.
Setting [5] is: treatment concentration 500 ppm.
Setting [6] is: application rate 50 g/a into paddy water.
The mark [7] stands for this setting: application rate 100 g/a into paddy water.
[8] abbreviates: treatment concentration 1000 ppm.

With `CCOC(=O)COc1ncccc1Oc1cc(N)c(F)cc1Cl` [Compound A, 4-chloro-2-fluoro-5-{2-(ethoxycarbonyl)methoxy-3-pyridyloxy}aniline], the “Herbicidal Effect” value with Echinochloa oryzicola [1] (setting [3]) is given as 0; in the experiment with Echinochloa oryzicola [1] (setting [4]), 0; in the experiment with Echinochloa oryzicola [1] (setting [5]), 0; in the experiment on Amaranthus retroflexus it was 1. Moreover, the results for the “Herbicidal Effect Echinochloa oryzicola” value in the experiment on Echinochloa oryzicola [2] (setting [6]) and in the experiment with Echinochloa oryzicola [2] (setting [7]) were 0 and 10, respectively. The “Herbicidal Effect Lindernia procumbens” value with Lindernia procumbens (setting [6]) and in the experiment on Lindernia procumbens (setting [7]) was 0 in each case. For the same compound, the “Inhibitory Activity on Emergence” value with Arabidopsis thaliana (setting [5]) and in the experiment with Arabidopsis thaliana (setting [8]) was 0 throughout.

With `CCOC(=O)COc1ncccc1Oc1cc(NC(=O)CC(=O)C(F)(F)F)c(F)cc1Cl` [Compound B], the “Herbicidal Effect Echinochloa oryzicola” value in the experiment on Echinochloa oryzicola [2] (setting [6]) and in the experiment with Echinochloa oryzicola [2] (setting [7]) was 0 each time. Further, the “Herbicidal Effect Lindernia procumbens” value in the experiment with Lindernia procumbens (setting [6]) and with Lindernia procumbens (setting [7]) was 0 throughout. The “Inhibitory Activity on Emergence” value with Arabidopsis thaliana (setting [5]) and in the experiment with Arabidopsis thaliana (setting [8]) was 0 each time. Also, the “Herbicidal Effect” value with Amaranthus retroflexus came out at 3.

For the compound `CCOC(=O)COc1ncccc1Oc1cc(NC(=O)C=C(Nc2cc(Oc3cccnc3OCC(=O)OCC)c(Cl)cc2F)C(F)(F)F)c(F)cc1Cl` [Present compound], the “Herbicidal Effect” value with Echinochloa oryzicola [1] (setting [3]) amounted to 100; in the experiment on Echinochloa oryzicola [1] (setting [4]), 100; in the experiment with Echinochloa oryzicola [1] (setting [5]), 100; in the experiment on Amaranthus retroflexus, 8. For the same compound, the “Herbicidal Effect Echinochloa oryzicola” value in the experiment with Echinochloa oryzicola [2] (setting [6]) and with Echinochloa oryzicola [2] (setting [7]) was 100 each time. For the same compound, the “Herbicidal Effect Lindernia procumbens” value came to 50 in the experiment with Lindernia procumbens (setting [6]) and 60 in the experiment on Lindernia procumbens (setting [7]). Besides, the “Inhibitory Activity on Emergence” value with Arabidopsis thaliana (setting [5]) and with Arabidopsis thaliana (setting [8]) was 100 throughout.

The values above are taken from patent publication US11439147B2, “3-pyridyl oxyaniline compound and use of same” (Sumitomo Chemical Company, Limited, priority 2016, dated 2022).
